In patent publication EP4817613A1, “COMPOSITION FOR ERADICATING HELICOBACTER PYLORI COMPRISING ZASTAPRAZAN OR PHARMACEUTICALLY ACCEPTABLE SALT THEREOF” (Jeil Pharmaceutical Co., Ltd., priority 2023, dated 2025):

Legend:
[1] = test system: patients with erosive gastroesophageal reflux disease; assay: Phase 3 clinical trial: healing rate of mucosal breaks in H. pylori-positive subjects; assay type: in vivo, human
Procedure: H. pylori testing was performed by 13C-UBT, gastroscopy (Campylobacter-like organism test, CLO), or tissue biopsy to confirm H. pylori positivity/negativity. The testing was performed at the screening visit (Visit 1) or the randomization visit (Visit 2), and results from the same institution within 29 days prior to the randomization visit (Visit 2) could be substituted. Those who voluntarily agreed to participate in this clinical trial underwent a screening test through a screening visit, and only eligible subjects were allowed to participate in the clinical trial based on the inclusion/exclusion criteria. Eligible subjects were randomly assigned to the test group or control group and received the clinical trial drug according to the assigned group at the baseline visit (V2). […] [Table 10] The cumulative healing rate of mucosal breaks according to the presence or absence of H. pylori infection refers to the proportion of subjects whose mucosal breaks were healed by 4 weeks after the administration of the clinical trial drug on endoscopic examination. The frequency and percentage of healing rates of mucosal breaks at week 4 after the administration of the clinical trial drug were presented by administration group according to the presence or absence of H. pylori infection. The differences between the administration groups (test group-control group) were analyzed using the Cochran-Mantel-Haenszel method corrected with the baseline LA classification method as a stratification factor, and the 95% confidence intervals for the differences were presented.

[2] = test system: patients with erosive gastroesophageal reflux disease; assay: Phase 2 clinical trial, randomized, double-blind, active-controlled: healing of mucosal breaks and symptoms; assay type: in vivo, human; settings: for overall healing rate, number of subjects whose mucosal breaks were completely healed / overall healing rate, proportion of subjects whose mucosal breaks were completely healed: H. pylori-positive and -negative groups together
Procedure: H. pylori testing was performed by 13C-urea breath test (13C-UBT), gastroscopy (Campylobacter-like organism test, CLO), or tissue biopsy to confirm H. pylori positivity/negativity. The testing was performed at the screening visit (Visit 1) or the randomization visit (Visit 2), and results from the same institution within 29 days prior to the randomization visit (Visit 2) could be substituted. This clinical trial was a randomized, double-blind, active-controlled, multicenter, phase 2 clinical trial targeting patients with erosive gastroesophageal reflux disease. After the subjects gave written consent to participate in the clinical trial, a screening test was conducted. When the subjects were taking drugs that could affect the gastric mucosa at the time of screening, an upper gastrointestinal endoscopy was performed after a 2-week drug-free period (a 4-week drug-free period for potassium-competitive acid blockers (P-CABs) or proton pump inhibitors (PPIs)). […] At this time, the subjects were stratified by grade (A, B, C, D) according to the LA classification system classified by upper gastrointestinal endoscopy. Randomly assigned subjects took the clinical trial drug once a day according to the assigned administration group for four weeks. After four weeks of administration of the clinical trial drug, the subjects visited the clinical trial institution to undergo an upper gastrointestinal endoscopy to assess whether they were healed. Healed subjects underwent a Safety Follow-Up (F/U) two weeks later, and unhealed subjects were administered the clinical trial drug for additional four weeks (a total of 8 weeks of administration) and visited the clinical trial institution to undergo an upper gastrointestinal endoscopy. […] Days of achieving complete remission (CR, disappearance of heartburn and acid reflux for seven days) after the administration of the clinical trial drug • D. Proportion of symptom-free days (heartburn, acid reflux, heartburn/acid reflux) for 4 and 8 weeks after the administration of the clinical trial drug (daytime, nighttime, daytime/nighttime) • ③ Changes in frequency and severity of major symptoms at week 4 and week 8 of the clinical trial drug administration compared to the gastroesophageal reflux disease questionnaire (RDQ) baseline • ④ Changes in total score at week 4 and week 8 of the clinical trial drug administration compared to the GERD Health-Related Quality of Life (GERD-HRQL) baseline The proportion of subjects whose erosions recovered to normal mucosa from the first administration of the clinical trial drug up to week 8 and the two-sided 95% confidence intervals were presented by administration group. […] Days of achieving CR (disappearance of heartburn and acid reflux for seven days) after the administration of the clinical trial drug: When the symptom score is 0 for seven consecutive days after the first administration of the clinical trial drug, it was defined as CR (disappearance of heartburn and acid reflux for seven days), and the event was based on the first CR. When there was no CR, the case was considered as censoring.

[3] = test system: Helicobacter pylori SS1 (mouse colonizing strain); assay: Antibiotic susceptibility testing by microdilution (MIC and MBC), CLSI guideline; assay type: cell-based; settings: lowest concentration with no growth after spotting on antibiotic-free agar, Table 4 prints no unit (method concentrations in µg/mL)
Procedure: Helicobacter pylori SS1 (mouse colonizing strain): A strain known as Sydney strain. The strain is CagA-positive and VacA-positive and has been confirmed to infect and colonize in C57BL/6 mice. The strain is used in animal testing. The medium was prepared using Müller-Hinton broth (MH, Difco Inc., Sparks, MD, USA) [w/7% differentiation medium (Sigma CO., LTD., St. Louis, USA), 0.4% isovitalex (BBL Inc., Sparks, MD, USA)]. An antibiotic susceptibility testing was performed using the microdilution method according to the CLSI guideline. Two-fold serial dilution was performed in 12 steps in a 48-well plate with the highest concentration of 128 µg/mL for amocixillin and clarithromycin and 256 µg/mL for omeprazole. The bacteria were inoculated into wells containing only medium without antibiotics to prepare the positive control group, and the wells containing only medium without antibiotics or inoculated bacteria were used as the negative control group. The concentration range of the test substances, zastaprazan (JP-1366) and fexuprazan, was determined through preliminary experiments. […] The lowest concentration at which no bacterial growth was observed was determined as the MIC. […] The lowest concentration at which no bacteria growth occurred was determined as the MBC. […] All tests were performed in duplicate, and the results were determined by conducting the experiments in triplicate.

Row | SMILES | Number of healed subjects, (%) ([1]; full analysis set (FAS), week 4, 40 mg once a day, 25 subjects) | Healing rate, (%) ([2]; H. pylori-negative group, week 8, 40 mg once a day, N=41) | overall healing rate, number of subjects whose mucosal breaks were completely healed ([2]; week 4, 40 mg once a day, of 49 people) [people] | MBC [3] | Number of healed subjects, (%) ([1]; full analysis set (FAS), week 4, 20 mg once a day, 28 subjects) | Number of healed subjects, (%) ([1]; per protocol set (PPS), week 4, 20 mg once a day, 26 subjects) | Healing rate, (%) ([2]; H. pylori-negative group, week 4, 10 mg once a day, N=41) | Healing rate, (%) ([2]; H. pylori-negative group, week 4, 20 mg once a day, N=42) | Healing rate, (%) ([2]; H. pylori-negative group, week 8, 10 mg once a day, N=41) | Healing rate, (%) ([2]; H. pylori-negative group, week 8, 20 mg once a day, N=42) | overall healing rate, proportion of subjects whose mucosal breaks were completely healed ([2]; week 4, 10 mg once a day, 48 people) [%] | overall healing rate, number of subjects whose mucosal breaks were completely healed ([2]; week 4, 10 mg once a day, of 48 people) [people] | overall healing rate, proportion of subjects whose mucosal breaks were completely healed ([2]; week 4, 20 mg once a day, 47 people) [%] | overall healing rate, number of subjects whose mucosal breaks were completely healed ([2]; week 4, 20 mg once a day, of 47 people) [people] | Healing rate, (%) ([2]; H. pylori-positive group, week 4, 10 mg once a day, N=7) | Healing rate, (%) ([2]; H. pylori-positive group, week 4, 20 mg once a day, N=5, citrate salt) | Healing rate, (%) ([2]; H. pylori-positive group, week 8, 10 mg once a day, N=7) | Healing rate, (%) ([2]; H. pylori-positive group, week 8, 20 mg once a day, N=5, citrate salt)
1 | COc1ccc2nc([S@@+]([O-])Cc3ncc(C)c(OC)c3C)[nH]c2c1 [Esomeprazole, Esomeprazole magnesium trihydrate, reference compound] | 80.00 | 97.56 | 44 | – | – | – | – | – | – | – | – | – | – | – | – | – | – | –
2 | Cc1cccc(C)c1CNc1cc(C(=O)N2CCC2)cn2c(C)c(C)nc12.O=C(O)CC(O)(CC(=O)O)C(=O)O [JP-1366, azetidin-1-yl{8-[(2,6-dimethylbenzyl)amino]-2,3-dimethylimidazo[1,2-a]pyridin-6-yl}methanone citrate salt] | – | – | – | 16~323 | 96.43 | 100.00 | 95.12 | 90.48 | 97.56 | 97.62 | 93.75 | 45 | 91.49 | 43 | 85.71 | 100 | 100.00 | 100
